Assay results reported in patent publication US20260226031A1, “NOVEL COMPOUNDS” (NRG THERAPEUTICS LTD., priority 2023, published 2026).

Key:
[1] = system: mPTP; assay: mPTP activity (Ca2+ retention) assay in isolated rat liver mitochondria; type: biochemical; settings: isolated rat liver mitochondria; Fluo5N fluorescence at 10 min after CaCl2 (75 μM) bolus; DMSO 0%, 5 μM cyclosporin A 100% inhibition
From the text: Pharmacological inhibition or modulation of the mPTP can be measured in well characterised ‘Ca^2+ retention’ assays performed in isolated mitochondria. In vitro, isolated mitochondria rapidly sequester exogenous Ca^2+ until the intramitochondrial Ca^2+ concentration reaches the threshold for mPTP activation. Once the pore is activated, mitochondrial integrity is compromised and the stored Ca^2+ is released. The distribution of Ca^2+ between extra- and intra-mitochondrial compartments can be measured in real time with the use of membrane-impermeant Ca^2+ sensitive fluorescent dyes. Depending on the configuration of the assay, inhibition or modulation of the mPTP either delays the opening of the pore or increases the concentration of Ca^2+ required to induce mPTP opening.
MPTP activity was measured in mitochondria freshly isolated from female Sprague Dawley (250 to 300 gram) rat livers using the following method. Cervical dislocation was performed on the rat. The liver was then perfused in-situ with ~40 ml cold Dulbecco's Phosphate Buffered Saline (DPBS) prior to dissection and transferred into 30 ml Isolation Buffer (250 mM Sucrose, 10 mM KCl, 1 mM EGTA, 1 mM EDTA, 25 mM HEPES, adjusted to pH 7.5 with 1M NaOH). Each lobe of the liver was then removed from the buffer, minced using tweezers and a scalpel into ~5 mm pieces then transferred into a 50 ml Potterton dounce homogenization tube on ice containing 30 ml ice-cold centrifugation buffer (300 mM Trehalose, 25 mM HEPES, 1 mM EGTA, 1 mM EDTA, 10 mM KCl, adjusted to pH 7.5 with 1M NaOH and supplemented with 0.1% bovine serum albumin (BSA) and complete protease inhibitor cocktail (one tablet of inhibitor per 50 mls of buffer). Homogenisation was carried out using a Teflon® pestle at 1800 rpm. The slurry was centrifuged at 800 g for 10 min at 4° C., then the supernatant centrifuged at 10,000 g for 10 min. The pellet was washed once with FLIPR assay buffer (75 mM Mannitol, 25 mM Sucrose, 5 mM Potassium Phosphate Monobasic, 20 mM Tris base, 100 mM KCl, 0.1% BSA adjusted to pH 7.4 with 5M HCl) centrifuged again, then resuspended in FLIPR assay buffer to a concentration of 8.8 mg/ml protein.
Tested compounds (10 mM stock in DMSO) were serially diluted in DMSO in half log steps to generate 10 test concentrations (final concentrations in assay 30 μM to 1 nM). An intermediate dilution of 5 μl DMSO samples into 247 μl FLIPR assay buffer was carried out prior to transfer of 5 μl into duplicate wells of a 384 well polypropylene assay plate. Control wells were 0.5% (v/v) DMSO and 5 μM cyclosporin A.
A stock mitochondria/Fluo5N assay solution was prepared in 5.6 ml FLIPR assay buffer (at RT) supplemented with succinate disodium salt (10 mM), rotenone (1 μM), Fluo5N pentapotassium salt (2 μM) and 1 ml mitochondria suspension, then transferred (15 μl) into the assay plate containing test compounds and incubated for 10 min at RT. Assay plates were processed for fluorescence detection on either a FLIPR Tetra (Molecular Devices) or CLARIOstar (BMG) plate reader. For kinetic fluorescence detection on the FLIPR, dye fluorescence was measured every 3 sec for a total of 10 min. After 12 sec, a 2.5 μl bolus of CaCl2 (75 μM) was added from a source plate containing 675 μM CaCl2 in FLIPR assay buffer. Alternatively, the 2.5 μl addition of CaCl2 was performed using a Viaflow 384, plates were incubated at RT for 10 min, and dye fluorescence measured after 10 min on the CLARIOstar plate reader. pIC50 values for tested compounds were calculated using the fluorescence value collected at the 10 min timepoint on either plate reader, with % inhibition calculated using the DMSO control and cyclosporin A values as 0 and 100% respectively.

[2] = system: mPTP; assay: mPTP activity (Ca2+ retention) assay in isolated rat brain mitochondria; type: biochemical; settings: isolated rat brain mitochondria; Fluo5N fluorescence at 10 min after Ca2+ (75 μM) bolus
Description: MPTP activity was measured in brain mitochondria freshly isolated from female Sprague Dawley (250 to 300 gram) rats. Anaesthetised rats were perfused in-situ with ~40 ml cold Dulbecco's Phosphate Buffered Saline (DPBS), then brains dissected and transferred into 30 ml Isolation Buffer (225 mM mannitol, 75 mM sucrose, 1 mM EGTA, adjusted to pH 7.4 with 1M NaOH). The brain was minced using tweezers and a scalpel into ~5 mm pieces then transferred into a 50 ml Potterton Dounce homogenization tube on ice containing 10 ml ice-cold isolation buffer (as above with addition of Complete Protease inhibitor; 1 tablet per 50 ml buffer). Homogenisation was carried out using a Teflon® pestle at 1800 rpm. The slurry was centrifuged at 2000 g for 10 min at 4° C., then the supernatant centrifuged at 12,000 g for 9 min. The pellet was resuspended with a dounce homogeniser in isolation buffer as above but with the addition of 0.02% digitonin, centrifuged at 12,000 g for 11 min and finally resuspended in 5 ml modified isolation buffer (as above but with EGTA reduced to 0.1 mM).
Test compounds were prepared in 384 well polypropylene assay plates as described above for the liver mitochondria assay. A stock mitochondria/Fluo5N assay solution was prepared in 5.6 ml assay buffer (120 mM mannitol, 40 mM MOPS, 5 mM KH2PO4, 60 mM KCl, 10 mM pyruvate, 2 mM malate, 2 mM MgCl2, 20 μM ADP, 1.26 μM oligomycin A, adjusted to pH 7.4) supplemented with Fluo5N pentapotassium salt (2 μM) and 1 ml mitochondria suspension, then transferred (15 μl) into the assay plate containing test compounds and incubated for 10 min at RT. Assay plates were then transferred to a FLIPR Tetra plate reader (Molecular Devices). Dye fluorescence was then measured every 3 sec for a total of 10 min.

SMILES	mPTP Rat liver pIC50* [1]	mPTP Rat brain pIC50 [2]
O=C(c1nccc(=O)[nH]1)N1CC(c2ccccc2)C2(CCC2)C1 (racemic) [Example 18, rac-2-{8-phenyl-6-azaspiro[3.4]octane-6-carbonyl}-3H-pyrimidin-4-one]	5.52	6.56
O=C(c1cncc(O)c1)N1CC(c2ccccc2)C2(CCC2)C1 (single isomer, unassigned) [Example 1b, (5-hydroxypyridin-3-yl)(8-phenyl-6-azaspiro[3.4]octan-6-yl)methanone]	6.01	6.94
O=C(c1cncc(O)c1)N1CC(c2ccccc2)C2(CCC2)C1 (single isomer, unassigned) [Example 1c, (5-hydroxypyridin-3-yl)(8-phenyl-6-azaspiro[3.4]octan-6-yl)methanone]	<4.52	
Cn1nc(C(=O)N2C[C@@H](c3ccccc3)C3(CCC3)C2)[nH]c1=O (single isomer, unassigned) [Example 5b]	5.33	6.55
Cn1nc(C(=O)N2C[C@H](c3ccccc3)C3(CCC3)C2)[nH]c1=O (single isomer, unassigned) [Example 5c]	<4.52	<4.52
O=C(c1cncc(O)n1)N1CC(c2ccccc2)C2(CCC2)C1 (single isomer, unassigned) [Example 6a, (6-hydroxypyrazin-2-yl)(8-phenyl-6-azaspiro[3.4]octan-6-yl)methanone]	6.39	7.34
O=C(c1cncc(O)n1)N1CC(c2ccccc2)C2(CCC2)C1 (single isomer, unassigned) [Example 6b, (6-hydroxypyrazin-2-yl)(8-phenyl-6-azaspiro[3.4]octan-6-yl)methanone]	4.59	<4.52
CC1(C)CN(C(=O)c2cncc(=O)[nH]2)CC1c1ccccc1 (single isomer, unassigned) [Example 10a, 6-(3,3-dimethyl-4-phenylpyrrolidine-1-carbonyl)pyrazin-2(1H)-one]	6.18	7.03
CC1(C)CN(C(=O)c2cncc(=O)[nH]2)CC1c1ccccc1 (single isomer, unassigned) [Example 10b, 6-(3,3-dimethyl-4-phenylpyrrolidine-1-carbonyl)pyrazin-2(1H)-one]	5.19	6.07
O=C(c1cnn[nH]1)N1CC(c2ccccc2)C2(CCC2)C1 (single isomer, unassigned) [Example 14a, 8-Phenyl-6-(3H-1,2,3-triazole-4-carbonyl)-6-azaspiro[3.4]octane]	5.23	5.21
O=C(c1cnn[nH]1)N1CC(c2ccccc2)C2(CCC2)C1 (single isomer, unassigned) [Example 14b, 8-phenyl-6-(3H-1,2,3-triazole-4-carbonyl)-6-azaspiro[3.4]octane]	<4.52	
O=C(c1cc(O)ccn1)N1CC(c2ccccc2)C2(CCC2)C1 (centres unmarked) [Example 3, (4-hydroxypyridin-2-yl)(8-phenyl-6-azaspiro[3.4]octan-6-yl)methanone]	5.14	
Cn1nc(C(=O)N2CC(c3ccccc3)C3(CCC3)C2)[nH]c1=O (centres unmarked) [Example 5a, 2-methyl-5-(8-phenyl-6-azaspiro[3.4]octane-6-carbonyl)-2,4-dihydro-3H-1,2,4-triazol-3-one]	5.04	
O=C(c1cncc(=O)[nH]1)N1CC2(CCC2)C1c1ccccc1 (centres unmarked) [Example 12, 6-(1-phenyl-2-azaspiro[3.3]heptane-2-carbonyl)pyrazin-2(1H)-one]	<4.52	
CC1CN(C(=O)c2cncc(=O)[nH]2)CC1c1ccccc1 (centres unmarked) [Example 13, 6-(3-methyl-4-phenylpyrrolidine-1-carbonyl)pyrazin-2(1H)-one]	4.55	

Now from value to compound:

mPTP Rat liver pIC50* [1]	mPTP Rat brain pIC50 [2]	SMILES
5.27	6.1	CCC1CN(C(=O)c2cncc(=O)[nH]2)CC1c1ccccc1 (single isomer, unassigned) [Example 15a, 6-(3-ethyl-4-phenylpyrrolidine-1-carbonyl)pyrazin-2(1H)-one]
<4.52	4.81	CCC1CN(C(=O)c2cncc(=O)[nH]2)CC1c1ccccc1 (single isomer, unassigned) [Example 15b, 6-(3-ethyl-4-phenylpyrrolidine-1-carbonyl)pyrazin-2(1H)-one]
5.24	5.93	CCC1CN(C(=O)c2cncc(=O)[nH]2)CC1c1ccccc1 (single isomer, unassigned) [Example 15c, 6-(3-ethyl-4-phenylpyrrolidine-1-carbonyl)pyrazin-2(1H)-one]
<4.52	<4.52	CCC1CN(C(=O)c2cncc(=O)[nH]2)CC1c1ccccc1 (single isomer, unassigned) [Example 15d, 6-(3-ethyl-4-phenylpyrrolidine-1-carbonyl)pyrazin-2(1H)-one]
5.58	6.39	O=C(c1cncc(=O)[nH]1)N1CC(c2ccc(Cl)cc2)C2(CCC2)C1 (single isomer, unassigned) [Example 16a, 6-[8-(4-Chlorophenyl)-6-azaspiro[3.4]octane-6-carbonyl]-1H-pyrazin-2-one]
<4.52	<4.52	O=C(c1cncc(=O)[nH]1)N1CC(c2ccc(Cl)cc2)C2(CCC2)C1 (single isomer, unassigned) [Example 16b, 6-[8-(4-Chlorophenyl)-6-azaspiro[3.4]octane-6-carbonyl]-1H-pyrazin-2-one]
6.52		O=C(c1noc(=O)[nH]1)N1CC(c2cccc(F)c2)C2(CCC2)C1 (single isomer, unassigned) [Example 49a, 3-(8-(3-fluorophenyl)-6-azaspiro[3.4]octane-6-carbonyl)-1,2,4-oxadiazol-5(4H)-one]
	<4.52	O=C(c1noc(=O)[nH]1)N1CC(c2cccc(F)c2)C2(CCC2)C1 (single isomer, unassigned) [Example 49b, 3-(8-(3-fluorophenyl)-6-azaspiro[3.4]octane-6-carbonyl)-1,2,4-oxadiazol-5(4H)-one]
